The test system of one data set is hepatitis B virus (HBV). Description: Antiviral test against HBV in HepG 2.2.2.15 cells. To be noted: for SI50: HBV, HepG 2.2.2.15 cells. On the set-up: SI50: unit not given beside the values. Type of data set: cell-based, strain ayw1.
The test system of data set [1] is influenza A H1N1 virus. Kind of data set: Antiviral test against influenza A H1N1 in MDCK cells, visual (cytopathic effect). Type of data set: cell-based, strain California 07/2009. On the set-up: SI50: unit not given beside the values. Conditions: for EC50: Influenza A virus, H1N1, MDCK. On the technique in general: Damage to the host cells serves as the signal in cytopathic effect assays.

Data set [2] has as its system influenza A H1N1 virus. Description: Antiviral test against influenza A H1N1 in MDCK cells, neutral red (cytopathic effect). To be noted: for EC50: Influenza A virus, H1N1, MDCK. Type of data set: cell-based, strain California 07/2009. More on the design: SI50: unit not given beside the values.
A short description of data set [3]: in vitro. To be noted: dog, MDCK cells.
A short description of data set [4]: in vitro. To be noted: dog, MDCK cells. This is another data set of the same source.
Data set [5] can be described thus: in vitro. To be noted: human.
Data set [6] is described as follows: in vitro. To be noted: human. The source holds these as a separate data set.
Data set [7] deals with herpes simplex virus 1 (HSV-1). Kind of data set: microbe, parasite or virus in culture. Type of data set: cell-based, strain E-377. On the set-up: SI50: unit not given beside the values. Conditions: for EC50: Human alphaherpesvirus 1, HFF.
For data set [8], the system named is herpes simplex virus 2 (HSV-2). Description: Antiviral test against HSV-2 in HFF cells (crystal violet). Type of data set: cell-based, strain MS. On the set-up: SI50: unit not given beside the values.
A short description of data set [9]: Toxicity (CC50) in the HSV-1 test, HFF cells (crystal violet). Conditions: human.
A short description of data set [10]: Toxicity (CC50) in the HSV-2 test, HFF cells (crystal violet). To be noted: human.
A further data set deals with vaccinia virus (VV). Kind of data set: microbe, parasite or virus in culture. Type of data set: cell-based, strain Copenhagen. Conditions: Orthopoxvirus vaccinia, HFF.
[11] abbreviates: Hepatitis B virus, HepG2 2.2.15.

Usually EC50 stands for the midpoint of the concentration-response curve. As a reminder, the melting point is the temperature, or range, at which the solid turns liquid.

Converted amounts (≈) assume the structure as drawn. Like-named read-outs stand apart in the source and are kept apart here. Bounds are passed on as bounds.

As for `Nc1ccn([C@@H]2CS[C@H](CO)O2)c(=O)n1` [Compound 3TC, 3TC, reference compound], the 50% effective concentration (EC50) in the data set with hepatitis B virus (HBV) (HBV strain ayw1, drug concentration range 0.063–20 μM, 3TC control range 0.00032–0.1 μM, read-out: EC50) worked out at 0.01 µM.
As for `O=C(NC1C=CC(O)C1)c1ccccn1` (stereo not drawn) [Compound 13a, N-(4-Hydroxycyclopent-2-enyl)picolinamide], the EC50 in the data set on influenza A H1N1 virus [1] and with influenza A H1N1 virus [2] was above 100 µg/mL throughout. The CC50 in the data set “in vitro [3]” and in “in vitro [4]” was above 100 µg/mL in each case.
`O=C(NC1C=CC(O)C1)c1cccnc1` (stereo not drawn) [Compound 13b, N-(4-Hydroxycyclopent-2-enyl)nicotinamide] came in with a melting point of 125 to 127 °C. The concentration for a half-maximal effect (EC50) in the data set with influenza A H1N1 virus [1] is above 100 µg/mL. Besides, the concentration for a half-maximal effect (EC50) in the data set on influenza A H1N1 virus [2] is above 100 µg/mL. The same compound displayed a CC50 in the data set “in vitro [5]” above 300 µM. In addition, the CC50 in “in vitro [3]” was above 100 µg/mL. The compound also had a CC50 in “in vitro [4]” above 100 µg/mL.
For the compound `O=C(NC1C=CC(O)C1)c1ccncc1` (stereo not drawn) [Compound 13c, N-(4-Hydroxycyclopent-2-enyl)isonicotinamide], the melting point lay in the range of 170 to 175 °C. For the same compound, in the data set on influenza A H1N1 virus [1], the EC50 was above 100 µg/mL. Also, the EC50 with influenza A H1N1 virus [2] is above 100 µg/mL. Also, in “in vitro [5]”, the CC50 is above 300 µM. For the same compound, the CC50 in “in vitro [3]” is above 100 µg/mL. The same compound displayed a CC50 in the data set “in vitro [4]” above 100 µg/mL.
In turn, `O=C(NC1C=CC(O)C1)c1ccc2ccccc2n1` (stereo not drawn) [Compound 13d, N-(4-Hydroxycyclopent-2-enyl)quinoline-2-carboxamide] gave a melting point of 89 to 90 °C. The compound further yielded an EC50 with influenza A H1N1 virus [1] above 100 µg/mL. In the data set with influenza A H1N1 virus [2], this compound displayed a concentration giving a half-maximal response (EC50) above 100 µg/mL. Besides, in the data set “in vitro [3]”, the CC50 was above 100 µg/mL. Besides, the CC50 in “in vitro [4]” is above 100 µg/mL.
In the data set with hepatitis B virus (HBV), `O=C(NC1C=CC(O)CC1)c1ccccn1` (stereo not drawn) [Compound 14a, N-(4-Hydroxycyclohex-2-enyl)picolinamide] came in with an SI50 of 1. Further, the EC50 with hepatitis B virus (HBV) (setting [11]) is above 20 µM; with influenza A H1N1 virus [1] it was above 100 µg/mL; with influenza A H1N1 virus [2], above 100 µg/mL. For the same compound, the CC50 is above 20 µM in “in vitro [6]”, above 100 µg/mL in the data set “in vitro [3]” and above 100 µg/mL in “in vitro [4]”.
In the case of `O=C(NC1C=CC(O)CC1)c1cccnc1` (stereo not drawn) [Compound 14b, N-(4-Hydroxycyclohex-2-enyl)nicotinamide], the melting point is 95 to 99 °C. Besides, the SI50 in the data set with hepatitis B virus (HBV) is recorded as 1. In the data set on hepatitis B virus (HBV) (setting [11]), the half-maximal effective concentration (EC50) is above 20 µM. The 50% effective concentration (EC50) in the data set with influenza A H1N1 virus [1] is above 100 µg/mL. Further, in the data set on influenza A H1N1 virus [2], the EC50 was above 100 µg/mL. The compound further displayed a CC50 in the data set “in vitro [6]” above 20 µM. The CC50 in the data set “in vitro [3]” was above 100 µg/mL. Besides, the CC50 in “in vitro [4]” was above 100 µg/mL.
Consider `O=C(NC1C=CC(O)CC1)c1ccncc1` (stereo not drawn) [Compound 14c, N-(4-Hydroxycyclohex-2-enyl)isonicotinamide], for which the melting point is 245 to 250 °C (dec.). In the data set with hepatitis B virus (HBV), the SI50 worked out at 1. The compound further registered a concentration for a half-maximal effect (EC50) in the data set with hepatitis B virus (HBV) (setting [11]) of 9.64 µM. This compound gave an EC50 in the data set with influenza A H1N1 virus [1] above 100 µg/mL. In the data set on influenza A H1N1 virus [2], the EC50 was above 100 µg/mL. This compound yielded a CC50 in “in vitro [6]” above 100 µM. This compound came in with a CC50 in “in vitro [3]” above 100 µg/mL. Besides, the CC50 in the data set “in vitro [4]” was above 100 µg/mL.
With `O=C(NC1C=CC(O)CC1)c1ccc2ccccc2n1` (stereo not drawn) [Compound 14d, N-(4-Hydroxycyclohex-2-enyl)quinoline-2-carboxamide], the melting point was in the range of 80 to 84 °C. This compound also returned an SI50 in the data set with hepatitis B virus (HBV) of 1. Moreover, the EC50 with hepatitis B virus (HBV) (setting [11]) is above 20 µM. The EC50 with influenza A H1N1 virus [1] stood at 37 µg/mL (≈ 138 µM). Besides, the SI50 in the data set on influenza A H1N1 virus [1] (influenza A H1N1, MDCK cells, visual) is recorded as above 2.7. Also, in the data set on influenza A H1N1 virus [2], the response was half-maximal at 54 µg/mL (≈ 201 µM) (EC50). The same compound gave an SI50 in the data set on influenza A H1N1 virus [2] (influenza A H1N1, MDCK cells, neutral red) of 1.4. Besides, in the data set “in vitro [6]”, the CC50 is above 20 µM.
In the data set on influenza A H1N1 virus [1], `NC(=O)c1ncn([C@@H]2O[C@H](CO)[C@@H](O)[C@H]2O)n1` [Ribavirin, reference compound] gave an SI50 above 31 and a concentration giving a half-maximal response (EC50) of 3.2 µg/mL (≈ 13.1 µM). In the data set with influenza A H1N1 virus [2], this compound gave an SI50 of 14 and an EC50 of 3.1 µg/mL (≈ 12.7 µM).
As to `Nc1nc2c(ncn2COCCO)c(=O)[nH]1` [acyclovir], the SI50 in [7] is above 30; in data set [8], above 27. Further, the concentration giving a half-maximal response (EC50) was 3.29 µM in [7] and 3.7 µM in data set [8] (Human alphaherpesvirus 2, HFF). The CC50 in data set [9] and in data set [10] was above 100 µM throughout.
Consider `Nc1ccn(C[C@@H](CO)OCP(=O)(O)O)c(=O)n1` [cidofovir], for which the SI50 in data set [7] (HSV-1, HFF cells) is recorded as above 1; in the data set with hepatitis B virus (HBV), above 1. Also, the EC50 in data set [7] stood at 180 µM; in the data set with vaccinia virus (VV) it was 6.07 µM; in the data set with hepatitis B virus (HBV) (setting [11]), 180 µM. Besides, in data set [9], the CC50 was above 200 µM.

(Values after paper PMC4293787 (The Scientific World Journal, 2014).)
